# pIC50: −log10 of the molar value.
# Legend:
# MCF7 [1] = assay: Induction of apoptosis in human MCF-7 cells assessed as proportion of late apoptotic cells at 8.66 uM measured after 24 hrs by Annexin V- FITC/propidium iodide staining based flow cytometry (reference value: 0.1%); format: functional
# MCF7 [2] = assay: Induction of cell cycle arrest in human MCF-7 cells assessed as accumulation at S phase at 4.33 uM by propidium iodide staining based flow cytometry (reference value: 6.9%); format: functional
# MDA-MB-231 [3] = assay: Induction of apoptosis in human MDA-MB-231 cells at 2.6 uM by propidium iodide staining based flow cytometry (reference value: 2.6 +/- 0.28%); format: functional
# [4] = Toxicity in Swiss albino mouse assessed as cholesterol level in serum at 300 mg/kg, po administered as single dose (reference value: 103.62 +/-7.45 mg/dl); format: organism-based; conditions: in vivo
# MCF7 [5] = assay: Induction of cell cycle arrest in human MCF-7 cells assessed as accumulation at G2/M phase at 8.66 uM by propidium iodide staining based flow cytometry (reference value: 15.2%); format: functional
# MCF7 [6] = assay: Induction of apoptosis in human MCF-7 cells assessed as proportion of viable cells at 4.33 uM measured after 24 hrs by Annexin V- FITC/propidium iodide staining based flow cytometry (reference value: 94.6%); format: functional
# MDA-MB-231 [7] = assay: Induction of cell cycle arrest in human MDA-MB-231 cells assessed as accumulation at S phase at 10.42 uM by propidium iodide staining based flow cytometry (reference value: 11.35 +/- 0.07%); format: functional
# MDA-MB-231 [8] = assay: Induction of cell cycle arrest in human MDA-MB-231 cells assessed as accumulation at G2/M phase at 2.6 uM by propidium iodide staining based flow cytometry (reference value: 8.35 +/-0.07%); format: functional
# MCF7 [9] = assay: Antiproliferative activity against human MCF-7 cells assessed as proportion of dead cells at 6.25 ug/ml measured after 3 weeks by crystal violet staining based soft agar colony formation assay; format: functional; conditions: dose 6.25 µg/ml
# [10] = Toxicity in Swiss albino mouse assessed as RBC level in blood at 50 mg/kg, po administered as single dose (reference value: 10.56 +/- 1.22x10^6/mm3); format: organism-based; conditions: in vivo
# MCF7 [11] = assay: Induction of apoptosis in human MCF-7 cells assessed as proportion of necrotic cells at 4.33 uM measured after 24 hrs by Annexin V- FITC/propidium iodide staining based flow cytometry (reference value: 5.3%); format: functional
# HCT-116 = assay: Antiproliferative activity against human HCT-116 cells assessed as inhibition of cell growth measured after 48 hrs by SRB assay; format: functional, cell-based; conditions: HCT-116, 48 h
# [12] = Toxicity in Swiss albino mouse assessed as ALP level in serum at 5 mg/kg, po administered as single dose (reference value: 195.8 +/-12.06 U/L); format: organism-based; conditions: in vivo
# [13] = Toxicity in Swiss albino mouse assessed as SGOT level in serum at 5 mg/kg, po administered as single dose (reference value: 22.12 +/-1.91 U/L); format: organism-based; conditions: in vivo
# MCF7 [14] = assay: Induction of apoptosis in human MCF-7 cells assessed as proportion of early apoptotic cells at 2.17 uM measured after 24 hrs by Annexin V- FITC/propidium iodide staining based flow cytometry (reference value: 0%); format: functional
# [15] = Toxicity in Swiss albino mouse assessed as absolute and relative liver weight at 5 to 300 mg/kg, po administered as single dose; format: organism-based; conditions: in vivo, dose 5-300 mg/kg
# MCF7 [16] = assay: Antiproliferative activity against human MCF-7 cells assessed as proportion of live cells at 50 ug/ml measured after 3 weeks by crystal violet staining based soft agar colony formation assay (reference value: 100%); format: functional; conditions: dose 50 µg/ml
# MCF7 [17] = assay: Induction of apoptosis in human MCF-7 cells assessed as proportion of viable cells at 2.17 uM measured after 24 hrs by Annexin V- FITC/propidium iodide staining based flow cytometry (reference value: 94.6%); format: functional
# MCF7 [18] = assay: Induction of apoptosis in human MCF-7 cells at 4.33 uM by propidium iodide staining based flow cytometry (reference value: 2.1%); format: functional
# MDA-MB-231 [19] = assay: Induction of cell cycle arrest in human MDA-MB-231 cells assessed as accumulation at G2/M phase at 5.21 uM by propidium iodide staining based flow cytometry (reference value: 8.35 +/- 0.07%); format: functional
# MCF7 [20] = assay: Antiproliferative activity against human MCF-7 cells assessed as inhibition of colony formation measured after 3 weeks by crystal violet staining based soft agar colony formation assay; format: functional, cell-based
# MCF7 [21] = assay: Induction of apoptosis in human MCF-7 cells assessed as proportion of late apoptotic cells at 4.33 uM measured after 24 hrs by Annexin V- FITC/propidium iodide staining based flow cytometry (reference value: 0.1%); format: functional
# [22] = Toxicity in Swiss albino mouse assessed as SGPT level in serum at 50 mg/kg, po administered as single dose (reference value: 21.81 +/-2.1 U/L); format: organism-based; conditions: in vivo
# MDA-MB-231 [23] = assay: Induction of apoptosis in human MDA-MB-231 cells assessed as proportion of viable cells at 10.42 uM measured after 24 hrs by Annexin V-FITC/propidium iodide staining based flow cytometry (reference value: 99%); format: functional
# MDA-MB-231 [24] = assay: Induction of apoptosis in human MDA-MB-231 cells assessed as proportion of early apoptotic cells at 2.6 uM measured after 24 hrs by Annexin V-FITC/propidium iodide staining based flow cytometry (reference value: 0.2%); format: functional
# MCF7 [25] = assay: Induction of apoptosis in human MCF-7 cells at 2.17 uM by propidium iodide staining based flow cytometry (reference value: 2.1%); format: functional
# [26] = Toxicity in Swiss albino mouse assessed as mortality upto 300 mg/kg, po administered as single dose; format: organism-based; conditions: in vivo
# [27] = Toxicity in Swiss albino mouse assessed as total bilirubin level in serum at 50 mg/kg, po administered as single dose (reference value: 0.62 +/-0.05 mg/dl); format: organism-based; conditions: in vivo
# [28] = Toxicity in Swiss albino mouse assessed as albumin level in serum at 50 mg/kg, po administered as single dose (reference value: 0.56 +/-0.02 g/dl); format: organism-based; conditions: in vivo
# MCF7 [29] = assay: Induction of cell cycle arrest in human MCF-7 cells assessed as accumulation at G0/G1 phase at 2.17 uM by propidium iodide staining based flow cytometry (reference value: 74.5%); format: functional
# [30] = Toxicity in Swiss albino mouse assessed as triglyceride level in serum at 5 mg/kg, po administered as single dose (reference value: 78.34 +/-2.99 mg/dl); format: organism-based; conditions: in vivo
# MCF7 [31] = assay: Antiproliferative activity against human MCF-7 cells assessed as proportion of live cells at 25 ug/ml measured after 3 weeks by crystal violet staining based soft agar colony formation assay (reference value: 100%); format: functional; conditions: dose 25 µg/ml
# [32] = Toxicity in Swiss albino mouse assessed as body weight at 50 mg/kg, po administered as single dose (reference value: 31.62 +/- 1.64 gms); format: organism-based; conditions: in vivo
# [33] = Toxicity in Swiss albino mouse assessed as absolute and relative heart weight at 5 to 300 mg/kg, po administered as single dose; format: organism-based; conditions: in vivo, dose 5-300 mg/kg
compound,measurement,setting,value
COc1ccc(C(c2ccccc2OCCN2CCCC2)c2cccc3ccccc23)c(OC)c1OC (stereo not given),Activity,MCF7 [1],25.8%
same,Activity,MCF7 [2],13.9%
same,Activity,MDA-MB-231 [3],2.7%
same,Activity,[4],120.54 mg/dL
same,Activity,MCF7 [5],12.8%
same,Activity,MCF7 [6],63.1%
same,Activity,MDA-MB-231 [7],11.35%
same,Activity,MDA-MB-231 [8],10.35%
same,Activity,MCF7 [9],29.23%
same,Activity,[10],9.84 million/mm3
same,Activity,MCF7 [11],10.5%
same,pIC50,HCT-116,5.69
same,Activity,[12],198.57 U/L
same,Activity,[13],27.32 U/L
same,Activity,MCF7 [14],0%
same,Activity,[15],Non-Toxic
same,Activity,MCF7 [16],12.98%
same,Activity,MCF7 [17],77.8%
same,Activity,MCF7 [18],4.7%
same,Activity,MDA-MB-231 [19],10.2%
same,inhibition,MCF7 [20],Dose-dependent effect
same,IC50,"MCF7 [20]; MCF7, 504 h",11.2 µg/mL
same,Activity,MCF7 [21],25.8%
same,Activity,[22],19.12 U/L
same,Activity,MDA-MB-231 [23],49.4%
same,Activity,MDA-MB-231 [24],0.8%
same,Activity,MCF7 [25],2.2%
same,Activity,[26],Non-Toxic
same,Activity,[27],0.62 mg/dL
same,Activity,[28],0.57 g/dL
same,Activity,MCF7 [29],74.6%
same,Activity,[30],77.24 mg/dL
same,Activity,MCF7 [31],20.64%
same,Activity,[32],30.44 g
same,Activity,[33],Non-Toxic
